Laboratory results: article PMC4426631, “Insect antimicrobial peptides show potentiating functional interactions against Gram-negative bacteria” (Proceedings of the Royal Society B: Biological Sciences, 2015)
Entries after “also recorded” stand apart in the source; their conditions may differ. Cf = 5(6)-carboxyfluorescein

Columns and labels:
E. coli 498 [1] = assay: Bacteriostatic growth-rate dose-response assay, E. coli 498; assay type: cell-based; conditions: abaecin in combination with hymenoptaecin
Method: (§1) Initial coarse-level growth inhibition assays were carried out with concentrations of peptides up to 200 μM. Further assays of growth rates (bacteriostatic activity) and cell viability (bactericidal activity) were carried out on a finer scale. […] Growth rates were derived from spline-fitted growth curves to optical density (OD) data, while cell viability was assessed by plating cultures and counting colony-forming units after 18 h. Dose–response curves were fitted to both the bacteriostatic and bactericidal data with Markov Chain Monte Carlo parameter optimization (further details in electronic supplementary material). […]
(§2) v) Coarse growth inhibition assays. […]
(§3) The assa ys were carried out in 96-well plates (Griener Bio On e, Frick enh ausen, Germ an y) in an Eon™ Microplate Spectrophotometer (BioTek Instruments, VT, USA) for 16 h while r eco rding of changes in the OD600 at 20- min intervals. […] The AMPs used inthis assay are sh own in Tables S1and S4. vi) Dose response curv e quantif ication […]
(§4) 1.25, 2.5, 5, 10, and 20 μM) in rows, and 10 µl volumes of hymenoptaecin (final concentrations of 0, 0.625, 1.25, 2.5, 5, and 10 μM) in columns. […] Th e OD600 was measured ever y hour for 12 consecutive hours using a SpectraMax M2e microplate reader (Molecular Devices, Sunnyvale, USA). […]
(§5) Cell viability. […] Bacteria were grown for 18 h with AMPs before the number of viable cells was assessed. […]

E. coli 498 [2] = assay: Bactericidal cell viability assay (CFU after 18 h), E. coli 498; assay type: cell-based
Method: as §1, §2, §3, §4, §5

E. coli JM83 cells = assay: Atomic force microscopy imaging of bacterial cells; assay type: cell-based; conditions: 20 µM abaecin, 1.5 h, 37°C
Method: Bacteria were prepared for imaging as previously described (see electronic supplementary material). The data were analysed with NANOSCOPE […] software v. 1.40 (Veeco, USA). Three fields on each mica disc were imaged. Three-dimensional images and section profiles were prepared using WSXM v. 5.0 software. The roughness values were measured over the entire bacterial cell surface on 3 × 3 µm^2 areas. The average surface root mean square (RMS) roughness was calculated from 25 fields (300 × 300 nm^2). The data were analysed using […] v. 6 (StatSoft, Inc., Tulsa, OK, USA). Statistical significance was determined by ANOVA (Tukey's honestly significant difference test). […]
5 μM h ymenopt aecin. […] Th e cell surface was imaged in Anal ytical Labo rator y, Facult y of Chemistry, UMCS, Lublin, Poland using a NanoScope V AFM (Veeco, USA. All measurements were carri ed out in “Peak Force QNM” mode usin g an NSG 30 silicon tip with a spring constant of 20 N/m (NT-MDT, Russia). The data were an al yzed wi th Nanoscope Anal ysis software v1.40 (Veeco, USA). Three fields on each mica disk were imaged. Three dimensional images and section profiles were prepared using WSxM v5.0 software. The roughness values were measured over the entire bacterial cell surface on 3×3 µm2 areas. The average surface root-mean-square (RMS) roughness was calculated from 25 fields (300×300 nm2). […]

E. coli strain D22 = tested on: E. coli strain D22; parameters: method as in PMID 9219367; conditions: E. coli strain D22, which has a defective cell envelope; ref [46]; cited from earlier work
Source text: In the original report, the authors used E. coli strain D22, which has a defective cell envelope.

abaecin: proline-rich peptide abaecin, species version not specified at the place (Cf-FVPYNPPRPGQSKPFPSFPGHGPFNPKIQWPYPLPNPGH-NH2)
effect of abaecin on the MIC of hymenoptaecin (E. coli 498 [1]): reduce the minimal inhibitory concentration of hymenoptaecin
impact on cell viability, abaecin alone (E. coli 498 [2]; E. coli 498, concentrations tested up to 20 µM, CFU after 18 h): no impact on cell viability
lowest abaecin concentration that enhanced the bactericidal effects of hymenoptaecin (E. coli 498 [2]; E. coli, in combination with hymenoptaecin): 1.25 µM
cell morphology and surface (AFM), abaecin alone (E. coli JM83 cells): smoother than the control cells; also recorded: granules and grooves were visible although less pronounced, and there were fewer flagella
cell morphology and surface (AFM), abaecin alone (E. coli JM83 cells; listed as Abaecin): no significant impact on gross morphology
antibacterial activity (E. coli strain D22): antibacterial activity was demonstrated
